In patent publication US10780090B2, “Heteroaryl compounds useful as inhibitors of SUMO activating enzyme” (Millennium Pharmaceuticals, Inc., priority 2014, dated 2020):
Read-outs that look alike come from different tables or passages of the source.

Target: recombinant human SAE enzyme (Homo sapiens (Human), UniProt Q9UBT2)
Assay: SAE HTRF enzyme assay
Format: biochemical
Conditions: for inhibition at 0.111 µM: read-out: Percent Inhibition
Summary of the method: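 HTRF read-out using Eu-cryptate anti-Flag and allophycocyanin anti-GST antibodies, added with EDTA stop buffer and read after 2 h at 24 °C. The preceding reaction ran 105 min at 24 °C: 0.11 nM recombinant SAE, 0.5 μM ATP, Sumo-Flag, Ubc9-GST, pH 7.5. Values given as single-concentration inhibition or IC50.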

[1] = SAE inhibition at compound concentration 0.111 μM
[2] = SAE inhibition, class symbols, legend in nM

Chain of recombinant human SAE enzyme (Q9UBT2 whole entry): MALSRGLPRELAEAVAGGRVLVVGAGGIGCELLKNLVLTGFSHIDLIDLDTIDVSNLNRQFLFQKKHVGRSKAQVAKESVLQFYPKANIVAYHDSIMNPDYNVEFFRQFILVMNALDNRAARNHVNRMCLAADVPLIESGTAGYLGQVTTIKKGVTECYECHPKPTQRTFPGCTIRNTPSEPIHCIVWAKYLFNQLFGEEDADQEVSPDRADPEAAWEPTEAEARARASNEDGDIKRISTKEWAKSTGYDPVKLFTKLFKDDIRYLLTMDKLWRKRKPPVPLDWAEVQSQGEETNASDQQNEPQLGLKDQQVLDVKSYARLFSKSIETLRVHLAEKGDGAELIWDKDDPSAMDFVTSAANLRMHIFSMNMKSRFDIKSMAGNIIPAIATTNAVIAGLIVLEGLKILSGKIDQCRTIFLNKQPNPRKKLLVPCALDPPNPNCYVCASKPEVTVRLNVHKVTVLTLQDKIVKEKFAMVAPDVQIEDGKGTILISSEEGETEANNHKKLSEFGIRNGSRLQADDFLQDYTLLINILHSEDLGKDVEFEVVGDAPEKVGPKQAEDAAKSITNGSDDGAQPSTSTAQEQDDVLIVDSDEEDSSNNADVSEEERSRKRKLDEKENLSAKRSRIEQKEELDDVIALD
Chain of recombinant human SAE enzyme (Q9UBE0 whole entry partner): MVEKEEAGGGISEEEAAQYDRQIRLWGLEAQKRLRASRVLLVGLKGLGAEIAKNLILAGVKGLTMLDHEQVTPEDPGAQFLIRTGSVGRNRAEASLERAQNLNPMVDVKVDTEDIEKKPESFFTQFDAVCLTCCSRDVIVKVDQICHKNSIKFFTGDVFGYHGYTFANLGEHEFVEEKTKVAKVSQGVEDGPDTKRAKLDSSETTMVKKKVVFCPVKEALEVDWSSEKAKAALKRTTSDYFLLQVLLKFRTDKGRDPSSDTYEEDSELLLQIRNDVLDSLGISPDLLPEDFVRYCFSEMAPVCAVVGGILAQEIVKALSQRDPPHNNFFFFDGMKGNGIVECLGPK

| Structure (SMILES) | Percent Inhibition (Concentration 0.111 μM) | IC50 (class symbols A/B/C) [nM] | also measured |
| --- | --- | --- | --- |
| NS(=O)(=O)OC[C@H]1C[C@@H](Nc2ncncc2C(=O)c2cc([S@+]([O-])c3cccc(C(F)(F)F)c3)c(Cl)s2)C[C@@H]1O (mixture of isomers) [I-122, [(1R,2S,4R)-4-({5-[(5-chloro-4-{(R)-[3-(trifluoromethyl)phenyl]sulfinyl}-2-thienyl)carbonyl]pyrimidin-4-yl}amino)-2-hydroxycyclopentyl]methyl sulfamate and [(1R,2S,4R)-4-({5-[(5-chloro-4-{(S)-[3-(trifluoromethyl)phenyl]sulfinyl}-2-thienyl)carbonyl]pyrimidin-4-yl}amino)-2-hydroxycyclopentyl]methyl sulfamate] | 98 | < 10 | – |
| Cc1sc(C(=O)c2cncnc2N[C@@H]2C[C@H](COS(N)(=O)=O)[C@@H](O)C2)cc1Cn1cc(Br)cn1 [I-39, [(1R,2S,4R)-4-{[5-({4-[(4-bromo-1H-pyrazol-1-yl)methyl]-5-methyl-2-thienyl}carbonyl)pyrimidin-4-yl]amino}-2-hydroxycyclopentyl]methyl sulfamate] | – | – | inhibition at 0.111 µM (Concentration 0.111 μM): 98% |
| NS(=O)(=O)OC[C@H]1C[C@@H](Nc2ncncc2C(=O)c2cc(Cc3cccc(Cl)c3)c([C@@H]3CCCO3)s2)C[C@@H]1O (mixture of isomers) [I-41, [(1R,2S,4R)-4-{[5-({4-(3-chlorobenzyl)-5-[(2S)-tetrahydrofuran-2-yl]-2-thienyl}carbonyl)pyrimidin-4-yl]amino}-2-hydroxycyclopentyl]methyl sulfamate and [(1R,2S,4R)-4-{[5-({4-(3-chlorobenzyl)-5-[(2R)-tetrahydrofuran-2-yl]-2-thienyl}carbonyl)pyrimidin-4-yl]amino}-2-hydroxycyclopentyl]methyl sulfamate] | 99 | < 10 | – |
| NS(=O)(=O)OC[C@H]1C[C@@H](Nc2ncncc2C(=O)c2cc([C@@]3(c4cccc(Cl)c4)CCCN3)cs2)C[C@@H]1O (mixture of isomers) [I-38, [(1R,2S,4R)-4-{[5-({4-[(2S)-2-(3-chlorophenyl)pyrrolidin-2-yl]-2-thienyl}carbonyl)pyrimidin-4-yl]amino}-2-hydroxycyclopentyl]methyl sulfamate and [(1R,2S,4R)-4-{[5-({4-[(2R)-2-(3-chlorophenyl)pyrrolidin-2-yl]-2-thienyl}carbonyl)pyrimidin-4-yl]amino}-2-hydroxycyclopentyl]methyl sulfamate] | 101 | < 10 | – |
| NS(=O)(=O)OC[C@H]1C[C@@H](Nc2ncncc2C(=O)c2cc(CCc3ccc(Cl)cc3)cs2)C[C@@H]1O [I-178, [(1R,2S,4R)-4-{[5-({4-[2-(4-chlorophenyl)ethyl]-2-thienyl}carbonyl)pyrimidin-4-yl]amino}-2-hydroxycyclopentyl]methyl sulfamate] | – | 10 to 100 | inhibition at 0.111 µM (Concentration 0.111 μM): 87% |
| Cc1ccc(Cc2csc(C(=O)c3cncnc3N[C@@H]3C[C@H](COS(N)(=O)=O)[C@@H](O)C3)c2)o1 [I-237, [(1R,2S,4R)-2-Hydroxy-4-{[5-({4-[(5-methyl-2-furyl)methyl]-2-thienyl}carbonyl)pyrimidin-4-yl]amino}cyclopentyl]methyl sulfamate] | – | 100 to 1000 | inhibition at 0.111 µM (Concentration 0.111 μM): 25% |
| N[C@@H](c1cccc(Br)n1)c1cc(C(=O)c2cncnc2N[C@@H]2C[C@H](COS(N)(=O)=O)[C@@H](O)C2)sc1Cl (single isomer, unassigned) [I-18a, [(1R,2S,4R)-4-{[5-({4-[(R)-amino(6-bromopyridin-2-yl)methyl]-5-chloro-2-thienyl}carbonyl)pyrimidin-4-yl]amino}-2-hydroxycyclopentyl]methyl sulfamate or [(1R,2S,4R)-4-{[5-({4-[(S)-amino(6-bromopyridin-2-yl)methyl]-5-chloro-2-thienyl}carbonyl)pyrimidin-4-yl]amino}-2-hydroxycyclopentyl]methyl sulfamate] | 82 | 10 to 100 | – |
| NS(=O)(=O)OC[C@H]1C[C@@H](Nc2ncncc2C(=O)c2cc(Cc3ccc(F)c(Cl)c3)cs2)C[C@@H]1O [I-61, {(1R,2S,4R)-4-[(5-{[4-(3-chloro-4-fluorobenzyl)-2-thienyl]carbonyl}pyrimidin-4-yl)amino]-2-hydroxycyclopentyl}methyl sulfamate] | – | < 10 | inhibition at 0.111 µM (Concentration 0.111 μM): 98% |
| NS(=O)(=O)OC[C@H]1C[C@@H](Nc2ncncc2C(=O)c2cc([C@H]3NCCc4ccccc43)c(Cl)s2)C[C@@H]1O (single isomer, unassigned) [I-279b, [(1R,2S,4R)-4-{[5-({5-chloro-4-[(1S)-1,2,3,4-tetrahydroisoquinolin-1-yl]-2-thienyl}carbonyl)pyrimidin-4-yl]amino}-2-hydroxycyclopentyl]methyl sulfamate or [(1R,2S,4R)-4-{[5-({5-chloro-4-[(1R)-1,2,3,4-tetrahydroisoquinolin-1-yl]-2-thienyl}carbonyl)pyrimidin-4-yl]amino}-2-hydroxycyclopentyl]methyl sulfamate] | 84 | 10 to 100 | – |
| Cc1sc(C(=O)c2cncnc2N[C@@H]2C[C@H](COS(N)(=O)=O)[C@@H](O)C2)cc1[C@H]1OCOc2ccccc21 (mixture of isomers) [I-280, [(1R,2S,4R)-4-{[5-({4-[(4R)-4H-1,3-benzodioxin-4-yl]-5-methyl-2-thienyl}carbonyl)pyrimidin-4-yl]amino}-2-hydroxycyclopentyl]methyl sulfamate and [(1R,2S,4R)-4-{[5-({4-[(4S)-4H-1,3-benzodioxin-4-yl]-5-methyl-2-thienyl}carbonyl)pyrimidin-4-yl]amino}-2-hydroxycyclopentyl]methyl sulfamate] | – | – | Percent Inhibition [1]: 98%; IC50 [2]: < 10 nM |
| NS(=O)(=O)OC[C@H]1C[C@@H](Nc2ncncc2C(=O)c2cc([C@@H]3OCCc4ccccc43)cs2)C[C@@H]1O (single isomer, unassigned) [I-254b, [(1R,2S,4R)-4-{[5-({4-[(1R)-3,4-dihydro-1H-isochromen-1-yl]-2-thienyl}carbonyl)pyrimidin-4-yl]amino}-2-hydroxycyclopentyl]methyl sulfamate or [(1R,2S,4R)-4-{[5-({4-[(S)-3,4-dihydro-1H-isochromen-1-yl]-2-thienyl}carbonyl)pyrimidin-4-yl]amino}-2-hydroxycyclopentyl]methyl sulfamate] | 99 | < 10 | – |
| CC(O)(c1cccc(Cl)c1)c1csc(C(=O)c2cncnc2N[C@@H]2C[C@H](COS(N)(=O)=O)[C@@H](O)C2)c1 (single isomer, unassigned) [I-5b, [(1R,2S,4R)-4-{[5-({4-[(1R)-1-(3-chlorophenyl)-1-hydroxyethyl]-2-thienyl}carbonyl)pyrimidin-4-yl]amino}-2-hydroxycyclopentyl]methyl sulfamate or [(1R,2S,4R)-4-{[5-({4-[(1S)-1-(3-chlorophenyl)-1-hydroxyethyl]-2-thienyl}carbonyl)pyrimidin-4-yl]amino}-2-hydroxycyclopentyl]methyl sulfamate] | 100 | < 10 | – |
| NS(=O)(=O)OC[C@H]1C[C@@H](Nc2ncncc2C(=O)c2cc([C@H](O)c3cc(Br)ccc3F)cs2)C[C@@H]1O (single isomer, unassigned) [I-19a, [(1R,2S,4R)-4-{[5-({4-[(R)-(5-bromo-2-fluorophenyl)(hydroxy)methyl]-2-thienyl}carbonyl)pyrimidin-4-yl]amino}-2-hydroxycyclopentyl]methyl sulfamate or [(1R,2S,4R)-4-{[5-({4-[(S)-(5-bromo-2-fluorophenyl)(hydroxy)methyl]-2-thienyl}carbonyl)pyrimidin-4-yl]amino}-2-hydroxycyclopentyl]methyl sulfamate] | 98 | < 10 | – |
| Cc1sc(C(=O)c2cncnc2N[C@@H]2C[C@H](COS(N)(=O)=O)[C@@H](O)C2)cc1Cn1ccc(C#N)c1 [I-194, [(1R,2S,4R)-4-{[5-({4-[(3-cyano-1H-pyrrol-1-yl)methyl]-5-methyl-2-thienyl}carbonyl)pyrimidin-4-yl]amino}-2-hydroxycyclopentyl]methyl sulfamate] | – | 10 to 100 | inhibition at 0.111 µM (Concentration 0.111 μM): 66% |
| NS(=O)(=O)OC[C@H]1C[C@@H](Nc2ncncc2C(=O)c2cc(C3SCCc4ccc(Cl)cc43)cs2)[C@H](O)[C@@H]1O (single isomer, unassigned) [I-278a, [(1R,2R,3S,4R)-4-{[5-({4-[(1R)-7-chloro-3,4-dihydro-1H-isothiochromen-1-yl]-2-thienyl}carbonyl)pyrimidin-4-yl]amino}-2,3-dihydroxycyclopentyl]methyl sulfamate or [(1R,2R,3S,4R)-4-{[5-({4-[(1S)-7-chloro-3,4-dihydro-1H-isothiochromen-1-yl]-2-thienyl}carbonyl)pyrimidin-4-yl]amino}-2,3-dihydroxycyclopentyl]methyl sulfamate] | 77 | 10 to 100 | – |
| Cc1sc(C(=O)c2cncnc2N[C@@H]2C[C@H](COS(N)(=O)=O)[C@@H](O)C2)nc1Cc1cccc(Cl)c1 [I-353, {(1R,2S,4R)-4-[(5-{[4-(3-chlorobenzyl)-5-methyl-1,3-thiazol-2-yl]carbonyl}pyrimidin-4-yl)amino]-2-hydroxycyclopentyl}methyl sulfamate] | – | – | inhibition at 0.111 µM [1]: 98%; IC50 [2]: < 10 nM |
| NS(=O)(=O)OC[C@H]1C[C@@H](Nc2ncncc2C(=O)c2cc([C@@]3(c4cccc(Cl)c4)CCCN3)cs2)C[C@@H]1O (single isomer, unassigned) [I-38a, [(1R,2S,4R)-4-{[5-({4-[(2S)-2-(3-chlorophenyl)pyrrolidin-2-yl]-2-thienyl}carbonyl)pyrimidin-4-yl]amino}-2-hydroxycyclopentyl]methyl sulfamate or [(1R,2S,4R)-4-{[5-({4-[(2R)-2-(3-chlorophenyl)pyrrolidin-2-yl]-2-thienyl}carbonyl)pyrimidin-4-yl]amino}-2-hydroxycyclopentyl]methyl sulfamate] | 75 | 10 to 100 | – |
